Data: patent publication US9085606B2, “Beta amino acid derivatives as integrin antagonists” (Saint Louis University, priority 2012, dated 2015)

Experiments:
[1] = biological target: T1, Recombinant human integrin αvβ8 (Homo sapiens, UniProt P06756+P26012); assay: Solid Phase Receptor Assay for αvβ8 Function; settings: binding to LAP-coated plate; read-out: αvβ8 SPRA IC50
T1 construct: purchased R&D Systems 4135-AV
Procedure: Solid Phase Receptor Assay for αvβ8 Function.
Wells were washed 3 times with 150 μL TBS+ and 150 μL of blocking buffer (TBS+ with 1% bovine serum albumin, Sigma A7906) were added. The plate was incubated for 1 hr at 37° C. and then washed 3× with TBS+. […] Compounds were diluted 1:100 into the integrin solution and 50 μL added to empty wells of the washed LAP-coated plate according to a standard template with each sample repeated in triplicate. After incubation for two hours at room temperature, the plate was washed 3× with 150 μL of TBS+. To each well, 50 μL of biotinylated anti-αv antibody (R&D Systems, BAF1219) at 1 μg/mL in TBS+/0.1% BSA were added and the plate was covered and incubated for 1 hr at room temperature. After washing the plate 3× with 150 μL of TBS+ buffer, 50 μL of streptavidin-conjugated horseradish peroxidase (R&D Systems, DY998) diluted in TBS+ blocking buffer were added to the wells and the plate incubated for 20 min at room temperature. The plate was washed 3× with TBS+ followed by 50 μL of TMB substrate (Sigma T4444) added to each well and the plate incubated for 20 min at room temperature. The reaction was optionally stopped with 25 μL of Stop Solution (Sigma S5689). Plates were read by colorimetric detection at 650 nm wavelength using a Tecan Safire II plate reader.

[2] = biological target: T2, Recombinant human integrin αvβ1 (Homo sapiens, UniProt P05556+P06756); assay: Solid Phase Receptor Assay for αvβ1 Function; settings: binding to fibronectin-coated plate; read-out: αvβ1 SPRA IC50
T2 construct: purchased R&D Systems 6579-AV
Procedure: Solid Phase Receptor Assay for αvβ1 Function.
Wells were washed 3 times with 150 μl TBS+ and 150 μL of blocking buffer (TBS+ with 1% bovine serum albumin, Sigma A7906) were added. The plate was incubated for 1 hr at 37° C. and then washed 3× with TBS+ buffer. […] Compounds were diluted 1:100 into the integrin solution and 50 μL added to empty wells of the washed fibronectin-coated plate according to a standard template with each sample repeated in triplicate. After incubation for two hours at room temperature, the plate was washed 3× with 150 μL of TBS+ buffer. To each well, 50 μL of biotinylated anti-αv antibody (R&D Systems, BAF1219) at 1 μg/mL in TBS+/0.1% BSA were added and the plate covered and incubated for 1 hr at room temperature. After washing the plate 3× with 150 μL of TBS+ buffer, 50 μL of streptavidin-conjugated horseradish peroxidase (R&D Systems, DY998) diluted in TBS+ blocking buffer were added to the wells and the plate incubated for 20 min at room temperature. The plate was washed 3× with TBS+ buffer followed by 50 μL of TMB substrate (Sigma, T4444) added to each well and the plate incubated for 20 min at room temperature. The reaction was optionally stopped with 25 μL of Stop Solution (Sigma S5689). Plates were read by colorimetric detection at 650 nm wavelength using a Tecan Safire II plate reader.

T1 sequence (P06756 31-992 limits assumed): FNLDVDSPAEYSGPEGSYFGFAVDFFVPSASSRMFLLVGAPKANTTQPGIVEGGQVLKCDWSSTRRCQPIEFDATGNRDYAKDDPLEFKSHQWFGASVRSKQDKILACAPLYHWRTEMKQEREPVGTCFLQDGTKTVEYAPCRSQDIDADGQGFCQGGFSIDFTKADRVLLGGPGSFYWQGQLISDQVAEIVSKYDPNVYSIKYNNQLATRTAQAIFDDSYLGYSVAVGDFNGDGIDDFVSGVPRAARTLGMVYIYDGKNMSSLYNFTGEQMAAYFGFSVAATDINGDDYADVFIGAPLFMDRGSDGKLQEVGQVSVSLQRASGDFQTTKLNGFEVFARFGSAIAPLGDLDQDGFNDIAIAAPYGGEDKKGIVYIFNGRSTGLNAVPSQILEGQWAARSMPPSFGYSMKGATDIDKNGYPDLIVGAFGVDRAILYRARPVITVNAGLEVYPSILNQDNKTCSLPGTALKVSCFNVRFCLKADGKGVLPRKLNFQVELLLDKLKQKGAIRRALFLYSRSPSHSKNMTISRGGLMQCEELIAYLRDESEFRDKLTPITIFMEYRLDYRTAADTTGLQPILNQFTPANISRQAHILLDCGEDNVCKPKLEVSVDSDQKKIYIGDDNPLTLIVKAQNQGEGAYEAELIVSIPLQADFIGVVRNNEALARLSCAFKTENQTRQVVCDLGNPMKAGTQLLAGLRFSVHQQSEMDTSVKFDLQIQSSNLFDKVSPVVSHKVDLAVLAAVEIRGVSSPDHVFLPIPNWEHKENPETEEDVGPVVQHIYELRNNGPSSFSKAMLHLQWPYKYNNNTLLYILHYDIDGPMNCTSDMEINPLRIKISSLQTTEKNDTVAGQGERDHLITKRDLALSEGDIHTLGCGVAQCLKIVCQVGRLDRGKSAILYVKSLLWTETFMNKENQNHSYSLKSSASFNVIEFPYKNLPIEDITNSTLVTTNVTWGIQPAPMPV
T1 sequence (P26012 43-684 limits assumed): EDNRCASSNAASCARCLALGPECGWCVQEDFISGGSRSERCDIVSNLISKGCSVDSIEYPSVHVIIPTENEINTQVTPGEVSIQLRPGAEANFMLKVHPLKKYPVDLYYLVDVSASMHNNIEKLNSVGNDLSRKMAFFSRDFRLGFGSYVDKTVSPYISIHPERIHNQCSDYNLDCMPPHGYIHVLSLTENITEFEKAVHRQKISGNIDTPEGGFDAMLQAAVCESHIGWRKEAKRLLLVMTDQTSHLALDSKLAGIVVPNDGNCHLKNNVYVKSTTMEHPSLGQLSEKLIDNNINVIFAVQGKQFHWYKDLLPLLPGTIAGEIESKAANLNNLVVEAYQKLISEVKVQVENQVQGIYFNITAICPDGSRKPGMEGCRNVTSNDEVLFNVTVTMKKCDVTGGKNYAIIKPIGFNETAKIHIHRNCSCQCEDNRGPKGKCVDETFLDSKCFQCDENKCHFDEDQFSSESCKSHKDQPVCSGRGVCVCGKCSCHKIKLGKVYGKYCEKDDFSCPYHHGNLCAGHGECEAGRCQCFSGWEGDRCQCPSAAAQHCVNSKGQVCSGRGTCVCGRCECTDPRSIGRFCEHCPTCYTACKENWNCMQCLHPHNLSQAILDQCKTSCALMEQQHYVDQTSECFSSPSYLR
T2 sequence (P06756 31-992 limits assumed): as the sequence (P06756 31-992 limits assumed) above
T2 sequence (P05556 21-728 limits assumed): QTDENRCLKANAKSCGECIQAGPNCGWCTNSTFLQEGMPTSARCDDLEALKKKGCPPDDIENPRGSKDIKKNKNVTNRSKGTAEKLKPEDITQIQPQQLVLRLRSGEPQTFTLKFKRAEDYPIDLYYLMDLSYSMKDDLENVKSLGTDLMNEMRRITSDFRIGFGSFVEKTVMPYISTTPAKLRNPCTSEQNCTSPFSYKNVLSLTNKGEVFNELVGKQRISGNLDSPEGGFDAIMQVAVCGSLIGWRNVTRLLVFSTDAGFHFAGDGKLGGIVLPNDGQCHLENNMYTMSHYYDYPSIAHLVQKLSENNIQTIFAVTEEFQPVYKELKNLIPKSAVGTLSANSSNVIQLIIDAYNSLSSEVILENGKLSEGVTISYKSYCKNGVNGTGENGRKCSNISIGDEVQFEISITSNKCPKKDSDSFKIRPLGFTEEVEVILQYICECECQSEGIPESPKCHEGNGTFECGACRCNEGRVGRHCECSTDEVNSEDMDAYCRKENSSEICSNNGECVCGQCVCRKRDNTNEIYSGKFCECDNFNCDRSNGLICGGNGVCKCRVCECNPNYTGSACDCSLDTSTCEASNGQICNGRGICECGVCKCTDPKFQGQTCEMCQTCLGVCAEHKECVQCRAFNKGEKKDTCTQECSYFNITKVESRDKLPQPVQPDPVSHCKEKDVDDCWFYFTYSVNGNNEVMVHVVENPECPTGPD

| SMILES | IC50 [1] | IC50 [2] |
| --- | --- | --- |
| CC(C)(C)c1cc(Br)cc([C@H](CC(=O)O)NC(=O)CNC(=O)c2cccc(NC3=NCCN3)c2)c1 [Example 7, (S)-3-(3-bromo-5-(tert-butyl)phenyl)-3-(2-(3-((4,5-dihydro-1H-imidazol-2-yl)amino)benzamido)acetamido)propanoic acid] | 0.1 nM | 2.7 nM |
| O=C(O)C[C@H](NC(=O)CNC(=O)c1cc(O)cc(NC2=NCC(O)CN2)c1)c1cc(Cl)cc(C2(CF)CCOCC2)c1 (stereo partly drawn) [Example 20, (3S)-3-(3-chloro-5-(4-(fluoromethyl)tetrahydro-2H-pyran-4-yl)phenyl)-3-(2-(3-hydroxy-5-((5-hydroxy-1,4,5,6-tetrahydropyrimidin-2-yl)amino)benzamido)acetamido)propanoic acid] | 0.5 nM | 4.9 nM |
| CC(C)(C)c1cc(C#N)cc([C@H](CC(=O)O)NC(=O)CNC(=O)c2cc(O)cc(NC3=NCC(O)CN3)c2)c1 (stereo partly drawn) [Example 12, (3S)-3-(3-(tert-butyl)-5-cyanophenyl)-3-(2-(3-hydroxy-5-((5-hydroxy-1,4,5,6-tetrahydro-pyrimidin-2-yl)amino)benzamido)acetamido)propanoic acid] | 0.2 nM | 2 nM |
| CC(C)(C)c1cc(Br)cc([C@H](CC(=O)O)NC(=O)CNC(=O)c2cncc(NC(=N)N)c2)c1 [Example 6, (S)-3-(3-bromo-5-(tert-butyl)phenyl)-3-(2-(5-guanidinonicotinamido)acetamido) propanoic acid] | 0.3 nM | 4.7 nM |
| CC(C)(O)c1cc(Br)cc([C@H](CC(=O)O)NC(=O)CNC(=O)c2cc(O)cc(NC3=NCC(O)CN3)c2)c1 (stereo partly drawn) [Example 3, (3S)-3-(3-bromo-5-(2-hydroxypropan-2-yl)phenyl)-3-(2-(3-hydroxy-5-((5-hydroxy-1,4,5,6-tetrahydropyrimidin-2-yl)amino)benzamido)acetamido)propanoic acid] | 0.4 nM | 2.2 nM |
| CC(C)(C)c1cc(Br)cc([C@H](CC(=O)O)NC(=O)CNC(=O)c2cncc(NC3=NCC(O)CN3)c2)c1 (stereo partly drawn) [Example 8, (3S)-3-(3-bromo-5-(tert-butyl)phenyl)-3-(2-(5-((5-hydroxy-1,4,5,6-tetrahydropyrimidin-2-yl)amino)nicotinamido)acetamido)propanoic acid] | 0.1 nM | 3 nM |
| CC(C)(C)c1cc(Br)c(O)c([C@H](CC(=O)O)NC(=O)CNC(=O)c2cc(O)cc(NC3=NCC(O)CN3)c2)c1 (stereo partly drawn) [Example 1, (3S)-3-(3-bromo-5-(tert-butyl)-2-hydroxyphenyl)-3-(2-(3-hydroxy-5-((5-hydroxy-1,4,5,6-tetrahydropyrimidin-2-yl)amino)benzamido)acetamido)propanoic acid] | 0.1 nM | 2.1 nM |
| CC(C)(O)c1cc(Cl)cc([C@H](CC(=O)O)NC(=O)CNC(=O)c2cc(O)cc(NC3=NCC(O)CN3)c2)c1 (stereo partly drawn) [Example 4, (3S)-3-(3-chloro-5-(2-hydroxypropan-2-yl)phenyl)-3-(2-(3-hydroxy-5-((5-hydroxy-1,4,5,6-tetrahydropyrimidin-2-yl)amino)benzamido)acetamido)propanoic acid] | 0.6 nM | 1.7 nM |
| CC(C)(CO)c1cc(Cl)cc([C@H](CC(=O)O)NC(=O)CNC(=O)c2cc(O)cc(NC3=NCC(O)CN3)c2)c1 (stereo partly drawn) [Example 15, (3S)-3-(3-chloro-5-(1-hydroxy-2-methylpropan-2-yl)phenyl)-3-(2-(3-hydroxy-5-((5-hydroxy-1,4,5,6-tetrahydropyrimidin-2-yl)amino)benzamido)acetamido)propanoic acid] | 0.3 nM | 2.9 nM |
| CC(C)(C)c1cc(Br)cc([C@H](CC(=O)O)NC(=O)CNC(=O)c2cc(O)cc(NC3=NCC(O)CN3)c2)c1O (stereo partly drawn) [Example 2, (3S)-3-(5-bromo-3-(tert-butyl)-2-hydroxyphenyl)-3-(2-(3-hydroxy-5-((5-hydroxy-1,4,5,6-tetrahydropyrimidin-2-yl)amino)benzamido)acetamido)propanoic acid] | 0.1 nM | 2.2 nM |
| CC(C)(O)c1cc([C@H](CC(=O)O)NC(=O)CNC(=O)c2cc(O)cc(NC3=NCC(O)CN3)c2)cc(C(F)(F)F)c1 (stereo partly drawn) [Example 13, (3S)-3-(2-(3-hydroxy-5-((5-hydroxy-1,4,5,6-tetrahydropyrimidin-2-yl)amino)benzamido)acetamido)-3-(3-(2-hydroxypropan-2-yl)-5-(trifluoromethyl)phenyl)propanoic acid] | 0.6 nM | 4 nM |
| CC(C)(C)c1cc([C@H](CC(=O)O)NC(=O)CNC(=O)c2cncc(NC(=N)N)c2)cc(C(C)(C)C)c1 [Example 10, (S)-3-(3,5-di-tert-butylphenyl)-3-(2-(5-guanidinonicotinamido)acetamido)propanoic acid] | 0.2 nM | 2.1 nM |
| O=C(O)C[C@H](NC(=O)CNC(=O)c1cc(O)cc(NC2=NCC(O)CN2)c1)c1cc(Cl)cc(C2(CO)CCOCC2)c1 (stereo partly drawn) [Example 17, (3S)-3-(3-chloro-5-(4-(hydroxymethyl)tetrahydro-2H-pyran-4-yl)phenyl)-3-(2-(3-hydroxy-5-((5-hydroxy-1,4,5,6-tetrahydropyrimidin-2-yl)amino)benzamido)acetamido)propanoic acid] | 0.4 nM | 3 nM |
| COCC(C)(C)c1cc(Cl)cc([C@H](CC(=O)O)NC(=O)CNC(=O)c2cc(O)cc(NC3=NCC(O)CN3)c2)c1 (stereo partly drawn) [Example 14, (3S)-3-(3-chloro-5-(1-methoxy-2-methylpropan-2-yl)phenyl)-3-(2-(3-hydroxy-5-((5-hydroxy-1,4,5,6-tetrahydropyrimidin-2-yl)amino)benzamido)acetamido)propanoic acid] | 0.3 nM | 2.4 nM |
| CC(C)(C)c1cc(-c2cncnc2)cc([C@H](CC(=O)O)NC(=O)CNC(=O)c2cc(O)cc(NC3=NCC(O)CN3)c2)c1 (stereo partly drawn) [Example 19, (3S)-3-(3-(tert-butyl)-5-(pyrimidin-5-yl)phenyl)-3-(2-(3-hydroxy-5-((5-hydroxy-1,4,5,6-tetrahydropyrimidin-2-yl)amino)benzamido)acetamido)propanoic acid] | 0.4 nM | 4.1 nM |
| CC(C)(C)c1cc(-c2cccnc2)cc([C@H](CC(=O)O)NC(=O)CNC(=O)c2cc(O)cc(NC3=NCC(O)CN3)c2)c1 (stereo partly drawn) [Example 18, (3S)-3-(3-(tert-butyl)-5-(pyridin-3-yl)phenyl)-3-(2-(3-hydroxy-5-((5-hydroxy-1,4,5,6-tetrahydropyrimidin-2-yl)amino)benzamido)acetamido)propanoic acid] | 0.3 nM | 3.4 nM |
| CC(C)(C)c1cc(Br)cc([C@H](CC(=O)O)NC(=O)CNC(=O)c2cc(O)cc(NC3=NCCN3)c2)c1 [Example 9, (S)-3-(3-bromo-5-(tert-butyl)phenyl)-3-(2-(3-((4,5-dihydro-1H-imidazol-2-yl)amino)-5-hydroxybenzamido)acetamido)propanoic acid] | 0.1 nM | 2.4 nM |
| COCC1(c2cc(Cl)cc([C@H](CC(=O)O)NC(=O)CNC(=O)c3cc(O)cc(NC4=NCC(O)CN4)c3)c2)CCOCC1 (stereo partly drawn) [Example 16, (3S)-3-(3-chloro-5-(4-(Methoxymethyl)tetrahydro-2H-pyran-4-yl)phenyl)-3-(2-(3-hydroxy-5-((5-hydroxy-1,4,5,6-tetrahydropyrimidin-2-yl)amino)benzamido)acetamido)propanoic acid] | 0.4 nM | 3.3 nM |
| CC(C)(C#N)c1cc(Br)cc([C@H](CC(=O)O)NC(=O)CNC(=O)c2cc(O)cc(NC3=NCC(O)CN3)c2)c1 (stereo partly drawn) [Example 11, (3S)-3-(3-bromo-5-(2-cyanopropan-2-yl)phenyl)-3-(2-(3-hydroxy-5-((5-hydroxy-1,4,5,6-tetrahydropyrimidin-2-yl)amino)benzamido)acetamido)propanoic acid] | 0.2 nM | 2.8 nM |
| CC(C)(C)c1cc(Br)cc([C@H](CC(=O)O)NC(=O)CNC(=O)c2cccc(NC(=N)N)c2)c1 [Example 5, (S)-3-(3-bromo-5-(tert-butyl)phenyl)-3-(2-(3-guanidinobenzamido)acetamido) propanoic acid] | 0.2 nM | 3.2 nM |
